Consider one molecule from patent US9102648B1, “Bioavailable diacylhydrazine ligands for modulating the expression of exogenous genes via an ecdysone receptor complex” (Intrexon Corporation, priority 2003, dated 2015).

SMILES strings stand for the structures.

The test system of series [1] is mutated ecdysone receptor-based gene switch. The experiment in a line: In vivo SEAP induction, ligand by IP injection. Details: species or system C57BL/6 mouse. The settings on record: mouse serum. In a few lines: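 Gene switch plasmids (receptor under CMV promoter) electroporated into quadriceps of C57BL/6 mice; 3 days later ligand given IP at 2.6 μmol or 26 nmol in 50 μL DMSO per mouse. Serum SEAP measured by chemiluminescence 2-11 days after dosing, averaged over four animals, expressed as % of GS™-E ligand induction.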

Series [2] concerns the target GAL4 DBD (1-147)-CfEcR(DEF)/VP16AD-βRXREF-LmUSPEF (Choristoneura fumiferana, UniProt O77240). Briefly: cell-based.

For `CCc1ccc(C(=O)NN(C(=O)c2cc(C)cc(C)c2)C(C)C(C)(C)C)cc1` (stereo not shown) [RG-103451], the “Secreted Alkaline Phosphatase (percentage of GS ™-E ligand induction) Day 2” value in series [1] (IP 2.6 μmol ligand 3 days after electroporation, day 2 after ligand) was 76 percentage of GS ™-E ligand induction. Also, the “Secreted Alkaline Phosphatase (percentage of GS ™-E ligand induction) Day 3” value in series [1] (IP 2.6 μmol ligand, day 3 after ligand) is 73 percentage of GS ™-E ligand induction. For the same molecule, in series [1] (IP 2.6 μmol ligand, day 11 after ligand), the “Secreted Alkaline Phosphatase (percentage of GS ™-E ligand induction) Day 11” value is on record as 371 percentage of GS ™-E ligand induction. Moreover, the “Fold Induction, 27-63 Assay, 3.3 uM” value in series [2] (3.3 uM ligand, RLU ligand treated / RLU DMSO treated cells, average of two wells) was 3326. Moreover, in series [2] (33 uM ligand, RLU ligand treated / RLU DMSO treated cells, average of two wells), the “Fold Induction, 27-63 Assay, 33 uM” value is listed as 3865. For the same molecule, the “27-63 assay Rel Max FI” value in series [2] (maximum fold induction at any concentration relative to that of GS-E ligand, CHO 27-63 cells) is on record as 0.884. Besides, the EC50 in series [2] (read-out: 27-63 assay EC50, CHO 27-63 stable cell line, luciferase reporter, average of two wells) is 0.314 µM.
